Results taken from US12157730B2, “Heteroaryl derivative, method for producing same, and pharmaceutical composition comprising same as effective component” (VORONOI INC., priority 2019, dated 2024).

Target: T1, Ba/F3 cell EGFR Exon20 ins NPH (Homo sapiens, UniProt P00533, INS773NPH)
T1 construct: expressed in transfected cells; host or cells: Ba/F3
Assay: Ba/F3 cell proliferation suppression, EGFR Exon20 ins NPH
Format: cell-based
Conditions: GI50 class; Ba/F3 cell line with NPH inserted at Exon20 of EGFR; 72 hours
Outline: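 Seed 3000–5000 cells/well; after 24 h add compound (12 conc., 0.3 nM–50 um final); incubate 72 h; add CellTiter-Glo, 10 min room temperature; read luminescence; GI50 from % growth vs control, triplicate.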

| SMILES | Ba/F3 (NPH) Activity |
| --- | --- |
| C=CC(=O)Nc1cc(Nc2cc(N3OCC[C@@H]3c3ccc4ccccc4c3)ncn2)c(OC)cc1N1CCN(C)[C@@H](C)C1 [compound 662, N-(2-((S)-3,4-dimethylpiperazine-1-yl)-4-methoxy-5-((6-((R)-3-(naphthalene-2-yl)isoxazolidine-2-yl)pyrimidine-4-yl)amino)phenyl)acrylamide] | B (50 nM ≤ GI50 < 500 nM) |
| C=CC(=O)Nc1cc(Nc2cc(N3OCC[C@@H]3c3ccc(Cl)cc3)ncn2)c(OC)cc1N1CCC(N2CCN(C(C)=O)CC2)CC1 [compound 806, N-(2-(4-(4-acetylpiperazine-1-yl)piperidine-1-yl)-5-((6-((R)-3-(4-chlorophenyl)isoxazolidine-2-yl)pyrimidine-4-yl)amino)-4-methoxyphenyl) acrylamide] | A (GI50 < 50 nM) |
| C=CC(=O)Nc1cc(Nc2cc(N3OCC[C@@H]3c3cccc(F)c3Cl)ncn2)c(OC)cc1N1CCC(N2C[C@H]3CCN(C)[C@H]3C2)CC1 [compound 447, N-(5-((6-((R)-3-(2-chloro-3-fluorophenyl)isoxazolidine-2-yl)pyrimidine-4-yl)amino)-4-methoxy-2-(4-((3aR,6aR)-1-methylhexahydropyrrolo [3,4-b]pyrrole-5(1H)-yl)piperidine-1-yl)phenyl)acrylamide] | A (GI50 < 50 nM) |
| C=CC(=O)Nc1cc(Nc2cc(N3OCC[C@@H]3c3cc(F)cc(F)c3)ncn2)c(OC)cc1N1CCC(N2C[C@H]3CC[C@@H](C2)N3C2CC2)CC1 [Example 115, N-(2-(4-((1R,5S)-8-cyclopropyl-3,8-diazabicyclo[3.2.1]octan-3-yl)piperidine-1-yl)-5-((6-((R)-3-(3,5-difluorophenyl)isoxazolidine-2-yl)pyrimidine-4-yl)amino)-4-methoxyphenyl) acrylamide] | A (GI50 < 50 nM) |
| C=CC(=O)Nc1cc(Nc2cc(N3OCC[C@@H]3c3cc(F)cc(F)c3)ncn2)c(OC)cc1N1CCC(N2C[C@H]3COC[C@H]3C2)CC1 [Example 105, N-(5-((6-((R)-3-(3,5-difluorophenyl)isoxazolidine-2-yl)pyrimidine-4-yl)amino)-4-methoxy-2-(4-((3aR, 6aS)-tetrahydro-1H-puro[3,4-c]pyrrole-5(3H)-yl)piperidine-1-yl)phenyl)acrylamide] | A (GI50 < 50 nM) |
| C=CC(=O)Nc1cc(Nc2cc(N3OCC[C@@H]3c3ccc(F)c(F)c3F)ncn2)c(OC)cc1N1CCC(N2C[C@@H]3C[C@H]2CO3)CC1 [compound 574, N-(2-(4-((1S,4S)-2-oxa-5-azabicyclo [2.2.1]heptane-5-yl)piperidine-1-yl)-4-methoxy-5-((6-((R)-3-(2,3,4-trifluorophenyl)isoxazolidine-2-yl)pyrimidine-4-yl)amino)phenyl)acrylamide] | A (GI50 < 50 nM) |
| C=CC(=O)Nc1cc(Nc2cc(N3OCC[C@@H]3c3cc(F)cc(F)c3)ncn2)c(OC)cc1N1CCC(N2CCN(C(C)C)CC2)CC1 [Example 265, N-(5-((6-((R)-3-(3,5-difluorophenyl)isoxazolidine-2-yl)pyrimidine-4-yl)amino)-2-(4-(4-isopropylpiperazine-1-yl)piperidine-1-yl)-4-methoxyphenyl) acrylamide] | A (GI50 < 50 nM) |
| C=CC(=O)Nc1cc(Nc2cc(N3OCC[C@@H]3c3cccc(Cl)c3C)ncn2)c(OC)cc1N1CCC(N2CCO[C@H](C)C2)CC1 [compound 530, N-(5-((6-((R)-3-(3-chloro-2-methylphenyl)isoxazolidine-2-yl)pyrimidine-4-yl)amino)-4-methoxy-2-(4-((R)-2-methylmorpholino)piperidine-1-yl)phenyl) acrylamide] | A (GI50 < 50 nM) |
| C=CC(=O)Nc1cc(Nc2cc(N3OCC[C@@H]3c3cccc(F)c3F)ncn2)c(OC)cc1N1C[C@@H]2CCN(C)[C@@H]2C1 [compound 876, N-(5-((6-((R)-3-(2,3-difluorophenyl)isoxazolidine-2-yl)pyrimidine-4-yl)amino)-4-methoxy-2-((3aS,6aS)-1-methylhexahydropyrrolo [3,4-b]pyrrole-5(1H)-yl)phenyl) acrylamide] | A (GI50 < 50 nM) |
| C=CC(=O)Nc1cc(Nc2cc(N3OCC[C@@H]3c3cccc(Cl)c3F)ncn2)c(OC)cc1N1CCC(N2CCN(C)CC2)CC1 [compound 747, N-(5-((6-((R)-3-(3-chloro-2-fluorophenyl)isoxazolidine-2-yl)pyrimidine-4-yl)amino)-4-methoxy-2-(4-(4-methylpiperazine-1-yl)piperidine-1-yl)phenyl) acrylamide] | A (GI50 < 50 nM) |
| C=CC(=O)Nc1cc(Nc2cc(N3OCC[C@@H]3c3ccc(Cl)c(F)c3)ncn2)c(OC)cc1N1CCN(C2COC2)CC1 [compound 801, N-(5-((6-((R)-3-(4-chloro-3-fluorophenyl)isoxazolidine-2-yl)pyrimidine-4-yl)amino)-4-methoxy-2-(4-(oxetane-3-yl)piperazine-1-yl)phenyl)acrylamide] | A (GI50 < 50 nM) |
| C=CC(=O)Nc1cc(Nc2cc(N3OCC[C@@H]3c3cccc(Cl)c3Cl)ncn2)c(OC)cc1N1C[C@@H]2C[C@H]1CO2 [compound 522, N-(2-((1S,4S)-2-oxa-5-azabicyclo[2.2.1]heptane-5-yl)-5-((6-((R)-3-(2,3-dichlorophenyl)isoxazolidine-2-yl)pyrimidine-4-yl)amino)-4-methoxyphenyl) acrylamide] | B (50 nM ≤ GI50 < 500 nM) |
| C=CC(=O)Nc1cc(Nc2cc(N3OCC[C@@H]3c3ccc(Cl)cc3F)ncn2)c(OC)cc1N1CCC(N2CC[C@@H](N(C)C)C2)CC1 [compound 404, N-(5-((6-((R)-3-(4-chloro-2-fluorophenyl)isoxazolidine-2-yl)pyrimidine-4-yl)amino)-2-(4-((R)-3-(dimethylamino)pyrolidine-1-yl)piperidine-1-yl)-4-methoxyphenyl) acrylamide] | B (50 nM ≤ GI50 < 500 nM) |
| C=CC(=O)Nc1cc(Nc2cc(N3OCC[C@@H]3c3cccc(Cl)c3F)ncn2)c(OC)cc1N1CCC(N2C[C@@H](C)O[C@@H](C)C2)CC1 [compound 706, N-(5-((6-((R)-3-(3-chloro-2-fluorophenyl)isoxazolidine-2-yl)pyrimidine-4-yl)amino)-2-(4-((2S,6R)-2,6-dimethylmorpholino)piperidine-1-yl)-4-methoxyphenyl) acrylamide] | A (GI50 < 50 nM) |
| C=CC(=O)Nc1cc(Nc2cc(N3OCC[C@@H]3c3cc(F)ccc3F)ncn2)c(OC)cc1N(C)CCN(C)C [compound 882, N-(5-((6-((R)-3-(2,5-difluorophenyl)isoxazolidine-2-yl)pyrimidine-4-yl)amino)-2-((2-(dimethylamino)ethyl)(methyl)amino)-4-methoxyphenyl) acrylamide] | A (GI50 < 50 nM) |
| C=CC(=O)Nc1cc(Nc2cc(N3OCC[C@@H]3c3cccc(OC)c3)ncn2)c(OC)cc1N1CCC(N2CCN(C3COC3)CC2)CC1 [Example 81, N-(4-methoxy-5-((6-((R)-3-(3-methoxyphenyl)isoxazolidine-2-yl)pyrimidine-4-yl)amino)-2-(4-(4-(oxetane-3-yl)piperazine-1-yl)piperidine-yl)phenyl) acrylamide] | B (50 nM ≤ GI50 < 500 nM) |
